What was measured:
Assay type in all cases: in vivo
[1] = test system: chickweed (Stellaria media); assay: Test C postemergence; conditions: for Chickweed plant response rating: scale 0 to 100 (0 no effect, 100 complete control); for Plant response rating, Chickweed: scale 0 to 100
Method in brief: (§1)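 Applications: preemergence onto seeded soil and postemergence onto 1- to 4-leaf seedlings, compound carried in non-phytotoxic solvent plus surfactant. Kept in greenhouse 12 to 14 days. Scored visually relative to untreated controls, 0 (no effect) to 100 (complete control).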

[2] = test system: barnyardgrass (Echinochloa crus-galli); assay: Test E flooded paddy water application; conditions: Flood, 21 days, scale 0 to 100 (0 no effect, 100 complete control)
Method in brief: (§2)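 Greenhouse pots of Tama silt loam with weeds and rice at 2.0–2.5-leaf stage, flooded to 3 cm; compounds applied directly into paddy water, depth maintained. Visual rating versus untreated controls after 21 days, 0 (no effect) to 100 (complete control); 29.5/26.7 °C, 16-h photoperiod.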

[3] = test system: junglerice (Echinochloa colona); assay: Test E flooded paddy water application; conditions: Flood, 21 days, scale 0 to 100 (0 no effect, 100 complete control)
Method in brief: as §2

[4] = test system: rice flatsedge (Cyperus iria); assay: Test E flooded paddy water application; conditions: Flood, 21 days, scale 0 to 100 (0 no effect, 100 complete control)
Method in brief: as §2

[5] = test system: bearded (brdd.) sprangletop (Leptochloa fusca ssp. fascicularis); assay: Test E flooded paddy water application; conditions: Flood, 21 days, scale 0 to 100 (0 no effect, 100 complete control)
Method in brief: as §2

[6] = test system: purple redstem (Ammannia coccinea); assay: Test E flooded paddy water application; conditions: Flood, 21 days, scale 0 to 100 (0 no effect, 100 complete control)
Method in brief: as §2

[7] = test system: transplanted rice seedlings (Oryza sativa cv. ‘Japonica-M202’); assay: Test E flooded paddy water application; conditions: Flood, 21 days, scale 0 to 100 (0 no effect, 100 complete control)
Method in brief: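 Response scored visually on a 0–100 scale (100 = complete control) at 21 days against untreated pots. Treatment was into paddy water 3 cm deep over silt loam, with plants at the 2.0–2.5-leaf stage, grown under 16-h light at 29.5/26.7 °C day/night.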

[8] = test system: ducksalad (Heteranthera limosa); assay: Test E flooded paddy water application; conditions: Flood, 21 days, scale 0 to 100 (0 no effect, 100 complete control)
Method in brief: as §2

[9] = test system: water seeded rice seedlings (Oryza sativa cv. ‘Japonica-M202’); assay: Test E flooded paddy water application; conditions: Flood, 21 days, scale 0 to 100 (0 no effect, 100 complete control)
Method in brief: as §2

corn (Zea mays) = assay: Test C pre/postemergence; conditions: Postemergence; for Corn plant response rating: scale 0 to 100 (0 no effect, 100 complete control); for Plant response rating, Corn: scale 0 to 100
Method in brief: as §1

Structure (SMILES): CCOC(=O)c1nc(-c2ccc(Cl)cc2)nc(N)c1Br [Compound 37]
- Chickweed plant response rating ([1]; 62 g ai/ha): 0
- Chickweed plant response rating ([1]; 125 g ai/ha): 0
- Plant response rating, Chickweed ([1]; 250 g ai/ha): 0
- Plant response rating, Chickweed ([1]; 500 g ai/ha): 0
- Barnyardgrass plant response rating ([2]; 64 g ai/ha): 0
- Barnyardgrass plant response rating ([2]; 125 g ai/ha): 0
- Barnyardgrass plant response rating ([2]; 250 g ai/ha): 0
- Plant response rating, Barnyardgrass ([2]; 16 g ai/ha): 0
- Junglerice plant response rating ([3]; 32 g ai/ha): 0
- Junglerice plant response rating ([3]; 64 g ai/ha): 0
- Junglerice plant response rating ([3]; 125 g ai/ha): 0
- Junglerice plant response rating ([3]; 250 g ai/ha): 0
- Plant response rating, Junglerice ([3]; 16 g ai/ha): 0
- Flatsedge, Rice plant response rating ([4]; 32 g ai/ha): 0
- Flatsedge, Rice plant response rating ([4]; 64 g ai/ha): 0
- Flatsedge, Rice plant response rating ([4]; 125 g ai/ha): 75
- Flatsedge, Rice plant response rating ([4]; 250 g ai/ha): 90
- Plant response rating, Flatsedge, Rice ([4]; 16 g ai/ha): 0
- Sprangletop, Brdd. plant response rating ([5]; 32 g ai/ha): 0
- Sprangletop, Brdd. plant response rating ([5]; 64 g ai/ha): 0
- Sprangletop, Brdd. plant response rating ([5]; 125 g ai/ha): 0
- Sprangletop, Brdd. plant response rating ([5]; 250 g ai/ha): 0
- Plant response rating, Sprangletop, Brdd. ([5]; 16 g ai/ha): 0
- Redstem plant response rating ([6]; 32 g ai/ha): 0
- Redstem plant response rating ([6]; 64 g ai/ha): 30
- Redstem plant response rating ([6]; 125 g ai/ha): 40
- Redstem plant response rating ([6]; 250 g ai/ha): 80
- Plant response rating, Redstem ([6]; 16 g ai/ha): 0
- Rice, Transplanted plant response rating ([7]; 32 g ai/ha): 0
- Rice, Transplanted plant response rating ([7]; 64 g ai/ha): 0
- Rice, Transplanted plant response rating ([7]; 125 g ai/ha): 0
- Rice, Transplanted plant response rating ([7]; 250 g ai/ha): 0
- Plant response rating, Rice, Transplanted ([7]; 16 g ai/ha): 0
- Ducksalad plant response rating ([8]; 32 g ai/ha): 100
- Ducksalad plant response rating ([8]; 64 g ai/ha): 100
- Ducksalad plant response rating ([8]; 125 g ai/ha): 100
- Ducksalad plant response rating ([8]; 250 g ai/ha): 100
- Plant response rating, Ducksalad ([8]; 16 g ai/ha): 80
- Rice, Water Seeded plant response rating ([9]; 32 g ai/ha): 0
- Rice, Water Seeded plant response rating ([9]; 64 g ai/ha): 0
- Rice, Water Seeded plant response rating ([9]; 125 g ai/ha): 0
- Rice, Water Seeded plant response rating ([9]; 250 g ai/ha): 0
- Plant response rating, Rice, Water Seeded ([9]; 16 g ai/ha): 0
- Corn plant response rating (corn (Zea mays); 62 g ai/ha): 0
- Corn plant response rating (corn (Zea mays); 125 g ai/ha): 10
- Plant response rating, Corn (corn (Zea mays); 250 g ai/ha): 15
- Plant response rating, Corn (corn (Zea mays); 500 g ai/ha): 25

From US8802597B2, “Herbicidal pyrimidines” (E I du Pont de Nemours and Company, priority 2003, dated 2014)
